ChEMBL document CHEMBL5154672, “Design and synthesis of HDAC inhibitors to enhance the therapeutic effect of diffuse large B-cell lymphoma by improving metabolic stability and pharmacokinetic characteristics” (Eur J Med Chem, 2022)

Assays:
[1] = Half life in dog plasma at 10 mg/kg, po measured upto 24 hrs by LC-MS/MS analysis; type: ADME, organism-based, Canis lupus familiaris
[2] = AUC (0 to infinity) in monkey plasma at 1 mg/kg, iv measured upto 24 hrs by LC-MS/MS analysis; type: ADME, organism-based, Macaca fascicularis; design: time < 24 hrs, dose 1 mg/kg, route iv; conditions: cynomolgus monkey
[3] = Half life in monkey plasma at 1 mg/kg, iv measured upto 24 hrs by LC-MS/MS analysis; type: ADME, organism-based, Macaca fascicularis; conditions: cynomolgus monkey
[4] = Volume of distribution at steady state in dog plasma at 1 mg/kg, iv measured upto 24 hrs by LC-MS/MS analysis; type: ADME, organism-based, Canis lupus familiaris; conditions: read-out: Vdss
[5] = Half life in dog plasma at 1 mg/kg, iv measured upto 24 hrs by LC-MS/MS analysis; type: ADME, organism-based, Canis lupus familiaris
[6] = Toxicity against CB.17 SCID mouse xenografted with human TMD8 cells assessed as effect on heart at 100 mg/kg/day, po for 21 consecutive days by H and E staining method; type: organism-based; conditions: in vivo, 504 h, time 21 day
[7] = Cmax in monkey plasma at 10 mg/kg, po measured upto 24 hrs by LC-MS/MS analysis; type: ADME, organism-based, Macaca fascicularis; design: time < 24 hrs, dose 10 mg/kg, route po; conditions: cynomolgus monkey
[8] = Toxicity against CB.17 SCID mouse xenografted with human TMD8 cells assessed as effect on lung at 100 mg/kg/day, po for 21 consecutive days by H and E staining method; type: organism-based; conditions: in vivo, 504 h, time 21 day
[9] = Oral bioavailability in monkey plasma at 10 mg/kg measured upto 24 hrs by LC-MS/MS analysis; type: ADME, organism-based, Macaca fascicularis; conditions: cynomolgus monkey
[10] = Oral bioavailability in dog plasma at 10 mg/kg measured upto 24 hrs by LC-MS/MS analysis; type: ADME, organism-based, Canis lupus familiaris
[11] = MRT in monkey plasma at 10 mg/kg, po measured upto 24 hrs by LC-MS/MS analysis; type: ADME, organism-based, Macaca fascicularis; conditions: cynomolgus monkey
[12] = MRT in dog plasma at 1 mg/kg, iv measured upto 24 hrs by LC-MS/MS analysis; type: ADME, organism-based, Canis lupus familiaris
[13] = Cmax in ICR mouse at 10 mg/kg, po measured upto 24 hrs by LC-MS/MS analysis; type: ADME, organism-based; design: dose 10 mg/kg, time < 24 hrs, route po; conditions: in vivo
[14] = Clearance in monkey plasma at 1 mg/kg, iv measured upto 24 hrs by LC-MS/MS analysis; type: ADME, organism-based, Macaca fascicularis; conditions: cynomolgus monkey, in vivo
[15] = Oral bioavailability in ICR mouse at 10 mg/kg measured upto 24 hrs by LC-MS/MS analysis; type: ADME, organism-based; conditions: in vivo
[16] = AUC (0 to infinity) in ICR mouse at 100 mg/kg, po measured upto 24 hrs by LC-MS/MS analysis; type: ADME, organism-based; design: dose 100 mg/kg, time < 24 hrs, route po; conditions: in vivo
[17] = AUC (0 to infinity) in dog plasma at 1 mg/kg, iv measured upto 24 hrs by LC-MS/MS analysis; type: ADME, organism-based, Canis lupus familiaris; design: dose 1 mg/kg, time < 24 hrs, route iv
[18] = Oral bioavailability in ICR mouse at 100 mg/kg measured upto 24 hrs by LC-MS/MS analysis; type: ADME, organism-based; conditions: in vivo
[19] = Clearance in ICR mouse at 2 mg/kg, iv measured upto 24 hrs by LC-MS/MS analysis; type: ADME, organism-based; conditions: in vivo
[20] = AUC (0 to infinity) in dog plasma at 10 mg/kg, po measured upto 24 hrs by LC-MS/MS analysis; type: ADME, organism-based, Canis lupus familiaris; design: time < 24 hrs, dose 10 mg/kg, route po
[21] = Half life in ICR mouse at 2 mg/kg, iv measured upto 24 hrs by LC-MS/MS analysis; type: ADME, organism-based; conditions: in vivo
[22] = AUC (0 to infinity) in ICR mouse at 2 mg/kg, iv measured upto 24 hrs by LC-MS/MS analysis; type: ADME, organism-based; design: time < 24 hrs, dose 2 mg/kg, route iv; conditions: in vivo
[23] = Cmax in dog plasma at 10 mg/kg, po measured upto 24 hrs by LC-MS/MS analysis; type: ADME, organism-based, Canis lupus familiaris; design: time < 24 hrs, dose 10 mg/kg, route po
[24] = MRT in ICR mouse at 10 mg/kg, po measured upto 24 hrs by LC-MS/MS analysis; type: ADME, organism-based; conditions: in vivo
[25] = Half life in monkey plasma at 10 mg/kg, po measured upto 24 hrs by LC-MS/MS analysis; type: ADME, organism-based, Macaca fascicularis; conditions: cynomolgus monkey
[26] = Toxicity against CB.17 SCID mouse xenografted with human TMD8 cells assessed as effect on spleen at 100 mg/kg/day, po for 21 consecutive days by H and E staining method; type: organism-based; conditions: in vivo, 504 h, time 21 day
[27] = Half life in ICR mouse at 10 mg/kg, po measured upto 24 hrs by LC-MS/MS analysis; type: ADME, organism-based; conditions: in vivo
[28] = MRT in dog plasma at 10 mg/kg, po measured upto 24 hrs by LC-MS/MS analysis; type: ADME, organism-based, Canis lupus familiaris
[29] = Toxicity against CB.17 SCID mouse xenografted with human TMD8 cells assessed as effect on liver at 100 mg/kg/day, po for 21 consecutive days by H and E staining method; type: organism-based; conditions: in vivo, 504 h, time 21 day
[30] = AUC (0 to infinity) in monkey plasma at 10 mg/kg, po measured upto 24 hrs by LC-MS/MS analysis; type: ADME, organism-based, Macaca fascicularis; design: time < 24 hrs, dose 10 mg/kg, route po; conditions: cynomolgus monkey
[31] = Cmax in ICR mouse at 100 mg/kg, po measured upto 24 hrs by LC-MS/MS analysis; type: ADME, organism-based; design: time < 24 hrs, dose 100 mg/kg, route po; conditions: in vivo
[32] = Half life in ICR mouse at 100 mg/kg, po measured upto 24 hrs by LC-MS/MS analysis; type: ADME, organism-based; conditions: in vivo
[33] = Volume of distribution at steady state in monkey plasma at 1 mg/kg, iv measured upto 24 hrs by LC-MS/MS analysis; type: ADME, organism-based, Macaca fascicularis; conditions: cynomolgus monkey, read-out: Vdss
[34] = MRT in monkey plasma at 1 mg/kg, iv measured upto 24 hrs by LC-MS/MS analysis; type: ADME, organism-based, Macaca fascicularis; conditions: cynomolgus monkey
[35] = Toxicity against CB.17 SCID mouse xenografted with human TMD8 cells assessed as effect on kidney at 100 mg/kg/day, po for 21 consecutive days by H and E staining method; type: organism-based; conditions: in vivo, 504 h, time 21 day
[36] = Aqueous solubility of the compound; type: physicochemical; conditions: aqueous medium
[37] = Toxicity against CB.17 SCID mouse xenografted with human TMD8 cells assessed as body weight loss at 50 to 100 mg/kg/day, po for 21 consecutive days; type: organism-based; conditions: in vivo, 504 h, dose 50-100 mg/kg/day, time 21 day
[38] = MRT in ICR mouse at 2 mg/kg, iv measured upto 24 hrs by LC-MS/MS analysis; type: ADME, organism-based; conditions: in vivo
TMD8 = experiment: In vivo antitumor activity against TMD8 cells xenografted in CB.17 SCID mouse assessed as tumor growth inhibition at 100 mg/kg/day, po for 21 consecutive days measured on day 21 by Vernier caliper relative to control; type: functional, Homo sapiens; conditions: TMD8, 504 h, time 21 day, read-out: TGI
[39] = MRT in ICR mouse at 100 mg/kg, po measured upto 24 hrs by LC-MS/MS analysis; type: ADME, organism-based; conditions: in vivo
[40] = AUC (0 to infinity) in ICR mouse at 10 mg/kg, po measured upto 24 hrs by LC-MS/MS analysis; type: ADME, organism-based; design: time < 24 hrs, dose 10 mg/kg, route po; conditions: in vivo
[41] = Clearance in dog plasma at 1 mg/kg, iv measured upto 24 hrs by LC-MS/MS analysis; type: ADME, organism-based, Canis lupus familiaris; conditions: in vivo

Cl.Nc1ccccc1NC(=O)c1ccc(CN2CCC/C(=C\c3ccccn3)C2=O)cc1
half-life [1]: 1.51 h
AUC(0-inf) [2]: 15700 ng·h/mL
half-life [3]: 4.31 h
Vd [4]: 0.55 L/kg
half-life [5]: 1.65 h
Activity [6]: Non-Toxic
Cmax [7]: 8520 ng/mL
Activity [8]: Non-Toxic
bioavailability [9]: 27.6%
bioavailability [10]: 58.9%
MRT [11]: 8.28 h
MRT [12]: 2.26 h
Cmax [13]: 3960 ng/mL
clearance [14]: 1.35 mL/min/kg
bioavailability [15]: 45.6%
AUC(0-inf) [16]: 57200 ng·h/mL
AUC(0-inf) [17]: 2550 ng·h/mL
bioavailability [18]: 91.8%
clearance [19]: 27.2 mL/min/kg
AUC(0-inf) [20]: 15100 ng·h/mL
half-life [21]: 0.427 h
AUC(0-inf) [22]: 1250 ng·h/mL
Cmax [23]: 4740 ng/mL
MRT [24]: 0.919 h
half-life [25]: 9.14 h
Activity [26]: Non-Toxic
half-life [27]: 1.31 h
MRT [28]: 2.71 h
Activity [29]: Non-Toxic
AUC(0-inf) [30]: 53200 ng·h/mL
Cmax [31]: 58300 ng/mL
half-life [32]: 1.63 h
Vd [33]: 0.34 L/kg
MRT [34]: 3.41 h
Activity [35]: Non-Toxic
solubility [36]: > 100 mg/mL
Activity [37]: Non-Toxic
MRT [38]: 0.402 h
inhibition in vivo at 100 mg/kg/day (TMD8): 77%
MRT [39]: 0.897 h
AUC(0-inf) [40]: 2670 ng·h/mL
clearance [41]: 6.72 mL/min/kg
